Source: patent US20180099931A1 (AbbVie S.à.r.l., priority 2016, published 2018)
pEC50: −log10 of the molar value. Like-named read-outs stand apart in the source and are kept apart here.

Target: T1, F508delCFTR (Homo sapiens, UniProt P13569, DEL508-508)
T1 construct: expressed in transfected cells; host or cells: CFBE41o- human lung-derived epithelial cells (CFBE4lo-F508delCFTR-HRP), doxycycline-inducible
Experiment: Cell Surface Expression-Horse Radish Peroxidase (CSE-HRP) Assay;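 for Maximum % activity (with co-corrector): co-corrector and positive control are both the same reference corrector at 2 µM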;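 for Maximum % activity (without co-corrector): percent of the 2 µM on-plate positive control corrector response above DMSO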
Assay type: cell-based
Conditions: for Maximum % activity (with co-corrector) / Emax: maximum at any tested concentration, normalized to on-plate positive control; for Emax: read-out: Maximum % activity (without co-corrector)

[1] = test compound without co-corrector, read-out: EC50 (without co-corrector)
[2] = with co-corrector (2 μM of 3-[(2R,4R)-4-({[1-(2,2-difluoro-1,3-benzodioxol-5-yl)cyclopropyl]carbonyl}amino)-7-methoxy-3,4-dihydro-2H-chromen-2-yl]benzoic acid), read-out: EC50 (with co-corrector)
[3] = CSE-HRP, test compound without co-corrector, read-out: EC50 (without co-corrector)
[4] = CSE-HRP, with co-corrector (2 μM of 3-[(2R,4R)-4-({[1-(2,2-difluoro-1,3-benzodioxol-5-yl)cyclopropyl]carbonyl}amino)-7-methoxy-3,4-dihydro-2H-chromen-2-yl]benzoic acid), read-out: EC50 (with co-corrector)
[5] = CSE-HRP, with co-corrector (2 μM)
[6] = test compound without co-corrector
[7] = with co-corrector (2 μM of 3-[(2R,4R)-4-({[1-(2,2-difluoro-1,3-benzodioxol-5-yl)cyclopropyl]carbonyl}amino)-7-methoxy-3,4-dihydro-2H-chromen-2-yl]benzoic acid)

T1 sequence (P13569 with tags, fused parts or gaps DEL508-508): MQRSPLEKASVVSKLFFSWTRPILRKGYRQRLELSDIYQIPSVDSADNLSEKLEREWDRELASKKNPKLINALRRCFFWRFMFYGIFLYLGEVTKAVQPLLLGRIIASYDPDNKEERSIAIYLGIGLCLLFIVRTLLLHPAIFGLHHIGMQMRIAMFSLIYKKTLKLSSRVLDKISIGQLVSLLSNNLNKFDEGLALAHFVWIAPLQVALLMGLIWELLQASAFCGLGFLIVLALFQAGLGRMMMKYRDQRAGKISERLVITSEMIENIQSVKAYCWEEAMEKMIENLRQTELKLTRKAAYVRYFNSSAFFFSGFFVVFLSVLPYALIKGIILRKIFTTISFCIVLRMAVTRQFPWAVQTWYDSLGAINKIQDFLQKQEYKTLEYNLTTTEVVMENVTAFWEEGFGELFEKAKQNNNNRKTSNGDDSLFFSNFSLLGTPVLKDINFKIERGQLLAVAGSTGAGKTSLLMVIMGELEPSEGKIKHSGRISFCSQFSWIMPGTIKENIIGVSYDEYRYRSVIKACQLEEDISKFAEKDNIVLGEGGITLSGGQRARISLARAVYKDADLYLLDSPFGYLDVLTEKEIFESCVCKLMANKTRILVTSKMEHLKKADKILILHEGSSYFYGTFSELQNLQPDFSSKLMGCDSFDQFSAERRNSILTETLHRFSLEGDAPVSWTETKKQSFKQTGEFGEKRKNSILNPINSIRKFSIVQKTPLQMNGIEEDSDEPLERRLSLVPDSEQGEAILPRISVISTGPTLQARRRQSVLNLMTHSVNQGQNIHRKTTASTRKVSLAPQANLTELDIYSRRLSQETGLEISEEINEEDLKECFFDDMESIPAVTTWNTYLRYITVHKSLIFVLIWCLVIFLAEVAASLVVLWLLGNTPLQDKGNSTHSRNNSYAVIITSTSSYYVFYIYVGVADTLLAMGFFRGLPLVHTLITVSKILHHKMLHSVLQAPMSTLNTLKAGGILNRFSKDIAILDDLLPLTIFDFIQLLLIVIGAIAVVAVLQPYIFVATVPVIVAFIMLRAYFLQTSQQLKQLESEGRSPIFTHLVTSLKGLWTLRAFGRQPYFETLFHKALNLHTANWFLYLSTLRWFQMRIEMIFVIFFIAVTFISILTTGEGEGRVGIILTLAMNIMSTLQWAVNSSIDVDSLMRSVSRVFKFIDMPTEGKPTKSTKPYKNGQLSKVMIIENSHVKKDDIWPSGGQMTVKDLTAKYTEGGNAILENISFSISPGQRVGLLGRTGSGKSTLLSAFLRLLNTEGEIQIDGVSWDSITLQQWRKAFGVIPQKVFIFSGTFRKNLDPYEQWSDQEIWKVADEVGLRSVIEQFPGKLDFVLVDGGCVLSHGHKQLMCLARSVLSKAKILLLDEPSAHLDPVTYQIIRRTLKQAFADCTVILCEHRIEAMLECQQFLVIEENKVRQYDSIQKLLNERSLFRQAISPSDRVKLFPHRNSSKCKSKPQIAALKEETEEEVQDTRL

Row | SMILES | pEC50 [1] | pEC50 [2] | Maximum % activity (with co-corrector) (with co-corrector (2 μM)) | Emax (without co-corrector) | pEC50 [3] | pEC50 [4] | Maximum % activity (with co-corrector) [5] | Emax (CSE-HRP, without co-corrector) | Emax [6] | Maximum % activity (with co-corrector) [7]
1 | COc1ccc(C(C)(C)C)cc1CN[C@H]1[C@H](C(C)(C)OC)[C@@H](C(=O)O)N(C(=O)C2CCCCC2)[C@H]1c1cccnc1OC [Example 40, (2S,3S,4S,5S)-4-{[(5-tert-butyl-2-methoxyphenyl)methyl]amino}-1-(cyclohexanecarbonyl)-3-(2-methoxypropan-2-yl)-5-(2-methoxypyridin-3-yl)pyrrolidine-2-carboxylic acid] | 5.00 to 6.00 | 5.00 to 6.00 | +++ (≥350) | > 200% |  |  |  |  |  | 
2 | COc1ccc(C(C)(C)C)cc1CN[C@H]1[C@H](C(C)(C)C)[C@@H](C(=O)O)N(C(=O)C(C)Sc2ccccc2)[C@H]1c1ccccc1 (stereo partly shown) [II-325] | > 6.00 | > 6.00 |  |  |  |  |  |  | > 200% | +++ (≥350)
3 | COc1ccc(C(C)(C)C)cc1CN[C@H]1[C@H](C(C)(C)C)[C@@H](C(=O)O)N(C(=O)C2CCCCO2)[C@H]1c1cccnc1OC(F)F (single isomer, unassigned) [II-489] | 5.00 to 6.00 | 5.00 to 6.00 |  |  |  |  |  |  | 100 to 200% | +++ (≥350)
4 | COc1ccc(C(C)(C)C)cc1CN[C@H]1[C@H](C(C)(C)C)[C@@H](C(=O)O)N(C(=O)[C@H]2CCC[C@H](OC)C2)[C@H]1c1cccnc1N(C)C (relative stereo) [II-448] | 5.00 to 6.00 | 5.00 to 6.00 |  |  |  |  |  |  | > 200% | +++ (≥350)
5 | COc1ccc(C(F)(F)F)cc1CN[C@H]1[C@H](C(C)(C)C)[C@@H](C(=O)O)N(C(=O)[C@H](OC)c2ccccc2)[C@H]1c1cccnc1N(C)C (racemic) [II-33] |  |  |  |  | 5.00 to 6.00 | 5.00 to 6.00 | +++ (≥350) | 100 to 200% |  | 
6 | COc1nc2ccccc2cc1CN[C@H]1[C@H](C(C)(C)C)[C@@H](C(=O)O)N(C(=O)C2CCOCC2)[C@H]1c1ccccc1C(C)C [II-598] | 5.00 to 6.00 | > 6.00 |  |  |  |  |  |  | > 200% | +++ (≥350)
7 | COc1ccc(C(C)(C)C)cc1CN[C@H]1[C@H](C(C)(C)C)[C@@H](C(=O)O)N(C(=O)Cc2cccc(F)c2F)[C@H]1c1ccccc1 [II-233] |  |  |  |  | 5.00 to 6.00 | > 6.00 | +++ (≥350) | > 200% |  | 
8 | COc1ccc(Cl)cc1CN[C@@H]1[C@@H](C2CC2)[C@H](C(=O)O)N(C(=O)N(C(C)C)C(C)C)[C@@H]1c1ccccc1 (racemic) [III-48] | < 5.00 | 5.00 to 6.00 |  |  |  |  |  |  | < 100% | ++ (≥150 and <350)
9 | COc1ccc(C2(C)CCC2)cc1CN[C@H]1[C@H](C(C)(C)C)[C@@H](C(=O)O)N(C(=O)[C@@H]2CCCO2)[C@H]1c1cccnc1N(C)C [Example I-283] |  |  |  |  | 5.00 to 6.00 | 5.00 to 6.00 | +++ (≥350) | > 200% |  | 
10 | COc1ccc(C(F)(F)F)cc1CN[C@H]1[C@H](C(C)(C)C)[C@@H](C(=O)O)N(C(=O)[C@@H]2CCCO2)[C@H]1c1ccccc1C(C)C [II-595] | > 6.00 | > 6.00 |  |  |  |  |  |  | > 200% | +++ (≥350)
11 | CO[C@@H](C(=O)N1[C@H](C(=O)O)[C@@H](C(C)(C)C)[C@H](Nc2cc(C(F)(F)F)cc(C)n2)[C@@H]1c1ccccc1)c1ccccc1 [III-78] | < 5.00 | 5.00 to 6.00 |  |  |  |  |  |  | < 100% | ++ (≥150 and <350)
12 | COc1ncc(C2CCC2)cc1CN[C@H]1[C@H](C(C)(C)C)[C@@H](C(=O)O)N(C(=O)C2CCCCC2)[C@H]1c1cccnc1OC [Example I-237] | 5.00 to 6.00 | 5.00 to 6.00 | +++ (≥350) | 100 to 200% |  |  |  |  |  | 
13 | COc1ccc(C(C)(C)C)cc1CN[C@H]1[C@H](C(C)(C)C)[C@@H](C(=O)O)N(C(=O)[C@H]2C[C@H](CCC#N)C[C@H]2C)[C@H]1c1ccccc1 [II-173] |  |  |  |  | 5.00 to 6.00 | 5.00 to 6.00 | +++ (≥350) | > 200% |  | 
14 | COc1nc(C(C)(C)C)ccc1CN[C@H]1[C@H](C(C)(C)C)[C@@H](C(=O)O)N(C(=O)[C@@H]2CCCCO2)[C@H]1c1cccnc1N(C)C [Example I-235] | 5.00 to 6.00 | > 6.00 | +++ (≥350) | 100 to 200% |  |  |  |  |  | 

Results, then the molecule that gave them:

Row | pEC50 [1] | pEC50 [2] | Maximum % activity (with co-corrector) (with co-corrector (2 μM)) | Emax (without co-corrector) | pEC50 [3] | pEC50 [4] | Maximum % activity (with co-corrector) [5] | Emax (CSE-HRP, without co-corrector) | Emax [6] | Maximum % activity (with co-corrector) [7] | SMILES
15 |  |  |  |  | 5.00 to 6.00 | 5.00 to 6.00 | ++ (≥150 and <350) | < 100% |  |  | CC(C)(C)[C@H]1[C@H](NCc2cccc(C(F)(F)F)c2)[C@H](c2ccccc2)N(C(=O)C2CCCCC2)[C@@H]1C(=O)O [II-122]
16 | 5.00 to 6.00 | 5.00 to 6.00 | +++ (≥350) | > 200% |  |  |  |  |  |  | COc1ccc(C(C)(C)C)cc1CN[C@H]1[C@H](C(C)(C)C)[C@@H](C(=O)O)N(C(=O)C2OC[C@@H]3CCC[C@H]23)[C@H]1c1ccccc1 (relative stereo) [Example I-107]
17 | 5.00 to 6.00 | 5.00 to 6.00 |  |  |  |  |  |  | < 100% | ++ (≥150 and <350) | COc1ccc(C(F)(F)F)cc1CN[C@@H]1[C@H](C(C)(C)C)[C@@H](C(=O)O)N(C(=O)OC(C)C)[C@H]1c1ccccc1 [II-556]
18 |  |  |  |  | 5.00 to 6.00 | 5.00 to 6.00 | ++ (≥150 and <350) | < 100% |  |  | COc1ncc(C2CCC2)cc1CN[C@H]1[C@H](C(C)(C)C)[C@@H](C(=O)O)N(C(=O)[C@H]2CCC[C@@H](C(F)(F)F)C2)[C@H]1c1ccccc1 (relative stereo) [Example I-260]
19 | 5.00 to 6.00 | 5.00 to 6.00 |  |  |  |  |  |  | > 200% | +++ (≥350) | COc1ccc(C(F)(F)F)cc1CN[C@H]1[C@H](C(C)(C)C)[C@@H](C(=O)O)N(C(=O)OC(C)C)[C@H]1c1ccccc1 [II-553]
20 | > 6.00 | > 6.00 | ++ (≥150 and <350) |  |  |  |  |  | < 100% |  | CC(C)(C)[C@H]1[C@H](NCc2ccc(F)cc2C(F)(F)F)[C@H](c2ccccc2)N(C(=O)C2CCCCC2)[C@@H]1C(=O)O [III-123]
21 |  |  |  |  | 5.00 to 6.00 | 5.00 to 6.00 | +++ (≥350) | > 200% |  |  | COc1ccc(C(F)(F)F)cc1CN[C@H]1[C@H](C(C)(C)C)[C@@H](C(=O)O)N(C(=O)C(OC)C(C)C)[C@H]1c1ccccc1 (stereo partly shown) [II-273]
22 | 5.00 to 6.00 | 5.00 to 6.00 |  |  |  |  |  |  | 100 to 200% | +++ (≥350) | COc1ccc(C(C)(C)C)cc1CN[C@H]1[C@H](C(C)(C)C)[C@@H](C(=O)O)N(C(=O)C2CCC(F)(F)CC2)[C@H]1c1ccccc1 [II-377]
23 |  |  |  |  | > 6.00 | > 6.00 | +++ (≥350) | > 200% |  |  | COc1ccc(C2CCC2)cc1CN[C@H]1[C@H](C(C)(C)OC)[C@@H](C(=O)O)N(C(=O)C2CCCCC2)[C@H]1c1ccccc1 [II-255]
24 | 5.00 to 6.00 | 5.00 to 6.00 | ++ (≥150 and <350) | < 100% |  |  |  |  |  |  | COc1cc(C(F)(F)F)cc(N[C@@H]2[C@@H](C(C)(C)OC)[C@H](C(=O)O)N(C(=O)C3CCCCC3)[C@@H]2c2ccccc2)n1 (racemic) [Example I-38]
25 |  |  |  |  | 5.00 to 6.00 | 5.00 to 6.00 | +++ (≥350) | 100 to 200% |  |  | COc1ccc(-c2cncc(F)c2)cc1CN[C@H]1[C@H](C(C)(C)C)[C@@H](C(=O)O)N(C(=O)C2CCCCC2)[C@H]1c1ccccc1 [II-287]
